Measured values: patent publication US20100247659A1, “PHENYLPHTHALIMIDE ANALOGS FOR TREATING DIABETIC MACULAR EDEMA” (Charlesson, LLC, priority 2007, published 2010)

Legend:
[1] = tested on: HUVEC; assay: MTT cell proliferation assay, HUVEC; format: cell-based; details: Homo sapiens, 72 h, treated 3 days, read-out: IC50, inhibition of proliferation of HUVEC
Text: (§1) Cell culture: All cell culture media and supplements were purchased from Cellgro unless otherwise indicated. Human Umbilical Vein Endothelial Cells (HUVEC) were obtained from American Type Culture Collection and grown in the EBM-MV2 medium (Clonetics). Bovine Retinal Endothelial Cells (BREC) and pericytes were isolated according to a modified method as described previously (Wong, et al. Investig. Opthalmol. Vis. Sci. 1987, 28: 1767-1775). Twelve bovine eyes were obtained from a local slaughterhouse (Country Home Meats). The retinas were removed and washed four times in DMEM. Subsequently retinas were homogenized and centrifuged at 400×g for 10 min. The resultant pellet was resuspended in an isolation medium (DMEM with 100 IU/ml penicillin, 100 μg/ml streptomycin and 250 ng/ml amphotericin). Microvessels were trapped on an 85 μm nylon mesh (Locker Wire Weavers LTD) and transferred to a petri dish (Falcon) containing 10 ml of an enzyme cocktail which consisted of 600 μg/ml DNase I (Sigma), 165 μg/ml collagenase (Sigma) and 700 μg/ml Pronase E (EMD) and were incubated at 37° C. for 20 min. The resultant vessel fragments were trapped on a 53 μm nylon mesh (Locker Wire Weavers LTD), washed with the isolation medium and centrifuged at 400×g for 5 min. For selective culture of pericytes, the resultant pellet was resuspended in 10 ml of the pericyte growth medium and transferred into 75-cm^2 plastic tissue culture flasks (BD Biosciences). For selective culture of BRCECs, the resultant pellet was resuspended in 10 ml of the BRCEC growth medium and transferred into 75-cm^2 collagen-coated plastic tissue culture flasks (BD Biosciences). The BRCEC growth medium consisted of DMEM supplemented with 10% human serum, 1% glutamine, 1 mg/ml insulin, 550 μg/ml transferring, 670 ng/ml selenium, 100 IU/ml penicillin, 100 μg/ml streptomycin, 250 ng/ml amphotericin, 90 μg/ml heparin (Sigma) and 15 μg/ml endothelial cell growth supplement (Upstate). Cells were cultured at 37° C. and 5% CO2 with regular medium change every 3 days. Confluence cultures were passaged by detaching the cells with 0.25% trypsin and plated at a split 1:3. […] At passage 2, BRCECs and pericytes were stored in a liquid nitrogen tank for future use.
MTT assay: Cells were seeded at a density of 5×10^4 cells per well in 400 μl of growth medium in triplicate in 24-well plates (Nalge Nunc) or gelatin-coated 24-well plates. Twenty-four hours after seeding, the growth medium was replaced by a medium containing 1% FBS, with or without different concentrations of thalidomide or phenylphthalimide analogs. After the cells were treated for 48-72 h, MTT was added to a final concentration of 0.5 mg of medium per ml and incubated for 4 h at 37° C. in 5% CO2. An equal volume of solubilizer buffer is then added, following the protocol recommended by the manufacturer (Roche Molecular Biochemicals), the cells will be incubated overnight at 37° C. in 5% CO2. The absorbance of the formazen product was measured at a wavelength of 570 nm, with 750 nm as the (subtracted) reference wavelength.
Primary endothelial cells (HUVEC and BRCEC) and pericytes were treated with various concentrations of the compounds for 3 days. Viable cells were quantified using MTT assay and IC50 of each compound was calculated (mean±SD, n=3, FIG. 1). The IC50 values represent the means and SE of 3 independent experiments.

[2] = tested on: BRCEC; assay: MTT cell proliferation assay, BRCEC; format: cell-based, bovine; details: Bos taurus, 72 h, treated 3 days, read-out: IC50, inhibition of proliferation of BRCEC
Text: as §1
MTT assay: Cells were seeded at a density of 5×10^4 cells per well in 400 μl of growth medium in triplicate in 24-well plates (Nalge Nunc) or gelatin-coated 24-well plates. […] The absorbance of the formazen product was measured at a wavelength of 570 nm, with 750 nm as the (subtracted) reference wavelength.
Primary endothelial cells (HUVEC and BRCEC) and pericytes were treated with various concentrations of the compounds for 3 days. Viable cells were quantified using MTT assay and IC50 of each compound was calculated (mean±SD, n=3, FIG. 1). […]

[3] = tested on: STZ-diabetic rats; assay: Retinal vascular leakage in STZ-diabetic rats, intravitreal injection; format: in vivo, rat; details: single intravitreal 1.0 μg/eye (5 μl 0.8 mM), 48 h
Method: Induction of diabetes by streptozotocin (STZ): BN rats (8 weeks of age) were given a single intraperitoneal injection of fresh made streptozotocin (STZ) (Sigma, 50 mg/kg in 10 mM of citrate buffer, pH 4.5) following an overnight fasting. Control rats received an injection of citrate buffer alone. Blood glucose levels were checked at 24 hours following the last STZ injection and once a week thereafter, and only the animals with glucose levels higher than 350 mg/dl were considered diabetic. Rats with hyperglycemia for 2 weeks were used for these experiments.
Intravitreal injection of compounds: Thalidomide and the phenylphthalimide analogs Compounds 1, 2 and Compound 4 were dissolved in vehicle (BN rat serum) and sterilized by filtration. OIR and STZ-diabetic BN rats received an intravitreal injection of 0.5-2.0 μg/eye of (5 μl/eye, 0.1-0.4 mg/ml in BN rat serum) of thalidomide, Compounds 1, 2 or Compound 4 into the right eye and the equal volume of the BN rat serum into the left eye.
Evans blue dye (Sigma) was dissolved in 0.9% saline (30 mg/ml), sonicated for 5 min and filtered through a 0.45-μm filter (Millipore). The rats were then anesthetized, and Evans blue (30 mg/kg) was injected over 10 s through the femoral vein using a glass capillary under microscopic inspection. Evans blue non-covalently binds to plasma albumin in the blood stream. Immediately after Evans blue infusion, the rats turned visibly blue, confirming their uptake and distribution of the dye. The rats were kept on a warm pad for 2 h to ensure the complete circulation of the dye. Then the chest cavity was opened, and the rats were perfused via the left ventricle with 1% paraformaldehyde in citrate buffer (pH 4.2) which was pre-warmed to 37° C. to prevent vasoconstriction. The perfusion lasted 10 min under the physiological pressure of 120 mmHg, in order to clear the dye from the vessel. Immediately after perfusion, the eyes were enucleated and the retinas were carefully dissected under an operating microscope. Evans blue dye was extracted by incubating each sample in 150 μl of formamide for 18 h at 70° C. The extract was centrifuged (Beckman) at 70,000 rpm (Rotor type: TLA 100.3) for 20 min at 4° C. Absorbance was measured using 100 μl of the supernatant at 620 nm by using Spectrophotometer DU800 (Beckman). The concentration of Evans blue in the extract was calculated from a standard curve of Evans blue in formamide and normalized by the total protein concentration in each sample. Results were expressed in mg of Evans blue per mg of total protein content.
Diabetes was induced by injection of STZ (50 mg/kg, i.v.) into adult BN rats after overnight fasting. Blood glucose levels were monitored at the second day after the injection and once a week thereafter. Rats with glucose levels above 350 mg/dl were considered as diabetic and used for the study. thalidomide, Compounds 1, 2 and 4 were separately injected into the vitreous space (5 μl, 0.8 mM in BN rat serum) of the right eye of STZ-diabetic rats 2 wks after the induction of diabetes. At 48 h after the injection, retinal vascular leakage was measured using the Evans blue-albumin leakage method.
To determine the dose-response relationship of the effect of Compound 4 and thalidomide, the STZ-diabetic rats received an intravitreal injection of Compound 4 and thalidomide with doses of 0.5, 0.75 and 1.0 μg/eye (5 μl/eye of 0.10, 0.15 and 0.20 mg/ml), respectively.

[4] = tested on: HUVEC; assay: Endothelial cell migration (invasion) assay; format: cell-based; details: Homo sapiens, VEGF 4 ng/ml, invasion through Matrigel, read-out: IC50, inhibition of HUVEC migration
Method: Cells were allowed to invade for 22±1 hours. Cells were labeled post invasion with Calcein AM (4 μg/ml) and measured by detecting the fluorescence of cells that invaded through the BD Matrigel™ Matrix with an Applied Biosystems CytoFluor® 4000 plate reader at 485 nm excitation and 530 nm emission.
In this assay system, human endothelial cells are allowed to invade and are then labeled with fluorescent dye Calcein AM before quantification on a fluorometer.
In FIG. 2B, cells were seeded at 5×10^4/insert in EBM-2 containing 0.1% BSA in multi-well inserts. The assembled assays were allowed to proceed for 6 hours. The results are expressed as percent inhibition of migration as compared to control (no inhibitor). Data represents the average of 3 experiments, each run in triplicate. The bars represent mean±SD.

[5] = tested on: CAM blood vessel formation induced by VEGF/bFGF; assay: Chicken chorioallantoic membrane (CAM) assay; format: in vivo; details: 200 ng VEGF-165/bFGF, 48 hr
Method: Chicken chorioallantoic membrane (CAM) assay: The fertile Leghorn chicken eggs were incubated in a humidified environment at 37.5° C. for 10 days. […] Anti-angiogenic compounds were then added 8 hr after the VEGF/bFGF at saturation to the same microbial testing disk, and the embryos were incubated for an additional 40 h. CAMs were then removed, quickly fixed with 4% paraformaldehyde in PBS, placed onto Petri dishes, and digitized images taken at 7.5× using a Nikon dissecting microscope and Scion Imaging system. A 1×1-cm grid was then added to the digital CAM images and the average number of vessels within 5-7 grids counted as a measure of vascularity.
CAM assay was used for in vivo anti-angiogenic studies. The fertile leghorn chicken eggs were allowed to incubate in a humidified environment at 37.5° C. for 10 days. […] Anti-angiogenic compounds were then added 8 hours after the VEGF/bFGF at saturation to the same microbial testing disk and embryos allowed to incubate for an additional 40 hours. After 48 hr, CAMs were removed, quickly fixed with 4% paraformaldehyde in PBS, placed onto Petri dishes, and digitized images taken at 7.5× using a Nikon dissecting microscope and Scion Imaging system. A 1×1-cm grid was then added to the digital CAM images and the average number of vessels within 5-7 grids counted as a measure of vascularity.
FIG. 14 is a table comparing the effect of Compound 4 on blood vessel formation. […] Data represent mean±SD of 8-16 samples from 2-3 separate experiments.

Row | Compound | IC50 [1] [µM] | IC50 [2] [µM] | reduction of retinal vascular leakage vs vehicle control [3] [%] | IC50 [4] [µM] | ED50, dose reducing blood vessel number to 50% of VEGF/bFGF alone group [5] [μg/embryo]
1 | Nc1cccc2c1C(=O)N(C1CCC(=O)NC1=O)C2=O (stereo not drawn) [Actimid] | > 100 | – | – | – | –
2 | CC(C)c1cccc(C(C)C)c1N1C(=O)c2ccc(O)cc2C1=O [Compound 1] | 3.3 | 1.94 | 61 | 1 | –
3 | CC(C)c1cccc(C(C)C)c1N1C(=O)c2ccccc2C1=O [Compound 2, (2,6-diisopropylphenyl)-1H-isoindole-1,3-dione] | 3 | 3.56 | – | – | –
4 | Nc1cccc2c1CN(C1CCC(=O)NC1=O)C2=O (stereo not drawn) [Revimid] | > 100 | – | – | – | –
5 | Cc1cc(C)c(/C=C2\C(=O)Nc3ccccc32)[nH]1 [SU5416] | – | – | – | – | 7.8
